According to PubChem BioAssay AID248 (DTP/NCI, 2004):
“And” between values parts separate entries of the source, which are not always exact repeats. Equal values may be shown once. Inconclusive results and toxic doses are left out. No stated cut-off is given here; in the data, active means T/C of 150% or more; inactive means T/C below 125%.

Tested on: L1210 leukemia ip in BDF1 mice, survival T/C
Assay: NCI In Vivo Anticancer Drug Screen. Data for tumor model L1210 Leukemia (intraperitoneal) in B6D2F1 (BDF1) mice
Conditions: endpoint: mean survival time, higher = longer survival
How it was run: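 Value reflects the ratio of survival in compound-treated mice to survival in vehicle-treated controls, with both groups carrying the same transplanted tumor.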

[1] = dose: 100.0 mg/kg/injection, schedule: Q04DX003 (ip), vehicle: acetone
[2] = dose: 200.0 mg/kg/injection, schedule: Q04DX003 (ip), vehicle: acetone
[3] = dose: 400.0 mg/kg/injection, schedule: Q04DX003 (ip), vehicle: acetone
[4] = dose: 100.0 mg/kg/injection, schedule: Q04DX002 (ip), vehicle: Klucel (hydroxypropylcellulose) (HPC)
[5] = dose: 200.0 mg/kg/injection, schedule: Q04DX002 (ip), vehicle: Klucel (hydroxypropylcellulose) (HPC)
[6] = dose: 400.0 mg/kg/injection, schedule: Q04DX002 (ip), vehicle: Klucel (hydroxypropylcellulose) (HPC)
[7] = dose: 100.0 mg/kg/injection, schedule: Q04DX003 (ip), vehicle: saline with Tween-80
[8] = dose: 100.0 mg/kg/injection, schedule: Q01DX009 (ip), vehicle: saline
[9] = dose: 100.0 mg/kg/injection, schedule: Q04DX003 (ip), vehicle: saline
[10] = dose: 200.0 mg/kg/injection, schedule: Q04DX003 (ip), vehicle: saline
[11] = dose: 25.0 mg/kg/injection, schedule: Q04DX003 (ip), vehicle: saline
[12] = dose: 50.0 mg/kg/injection, schedule: Q04DX003 (ip), vehicle: saline
[13] = dose: 100.0 mg/kg/injection, schedule: Q01DX001 (ip), vehicle: saline

Measured: T/C

NC1=NC(CCc2ccccc2)N(c2cccc(Cl)c2)C(N)=N1 (stereo not given)
inactive: dose: 6.25 mg/kg/injection, schedule: Q01DX001 (ip), vehicle: saline 104 % of control | dose: 12.5 mg/kg/injection, schedule: Q01DX001 (ip), vehicle: saline 98 % of control | dose: 25.0 mg/kg/injection, schedule: Q01DX001 (ip), vehicle: saline 106 % of control

O=[N+]([O-])c1cc([N+](=O)[O-])c(NC(c2ccccc2)C(O)c2ccccc2)c([N+](=O)[O-])c1 (stereo not given)
inactive: [1] 98 % of control | [2] 96 % of control | [3] 93 % of control

O=S(=O)(c1ccccc1)C1C2CCC(O2)C1S(=O)(=O)c1ccccc1 (stereo not given)
inactive: [4] 103 % of control | [5] 92 % of control | [6] 89 % of control

CC(=O)Nc1ccc(OC(=O)Nc2cccc(Cl)c2C)cc1
inactive: dose: 50.0 mg/kg/injection, schedule: Q01DX009 (ip), vehicle: saline with Tween-80 88 % of control and 92 % of control | dose: 100.0 mg/kg/injection, schedule: Q01DX001 (ip), vehicle: saline with Tween-80 92 % of control | dose: 100.0 mg/kg/injection, schedule: Q04DX002 (ip), vehicle: saline with Tween-80 87 % of control and 89 % of control | [7] 93 % of control | dose: 200.0 mg/kg/injection, schedule: Q01DX001 (ip), vehicle: saline with Tween-80 94 % of control | dose: 200.0 mg/kg/injection, schedule: Q04DX002 (ip), vehicle: saline with Tween-80 86 % of control | dose: 200.0 mg/kg/injection, schedule: Q04DX003 (ip), vehicle: saline with Tween-80 87 % of control | dose: 400.0 mg/kg/injection, schedule: Q01DX001 (ip), vehicle: saline with Tween-80 100 % of control | dose: 400.0 mg/kg/injection, schedule: Q01DX009 (ip), vehicle: saline with Tween-80 101 % of control | dose: 400.0 mg/kg/injection, schedule: Q04DX002 (ip), vehicle: saline with Tween-80 96 % of control and 86 % of control | dose: 400.0 mg/kg/injection, schedule: Q04DX003 (ip), vehicle: saline with Tween-80 90 % of control

COC(=O)/C=C(\C)Nc1ccc(C(C)=O)cc1
inactive: [1] 96 % of control | [2] 94 % of control | [3] 94 % of control

CCOC(=O)C(OCc1ccccc1)(C(=O)OCC)C(C)C
inactive: [8] 97 % of control | [9] 96 % of control | dose: 200.0 mg/kg/injection, schedule: Q01DX009 (ip), vehicle: saline 101 % of control | [10] 102 % of control | dose: 400.0 mg/kg/injection, schedule: Q01DX009 (ip), vehicle: saline 106 % of control | dose: 400.0 mg/kg/injection, schedule: Q04DX003 (ip), vehicle: saline 108 % of control

C=CCOC(=O)Nc1cccc2ccccc12
inactive: [4] 91 % of control | [5] 94 % of control | [6] 94 % of control

CCOC(=O)N(C1CCCCC1)P(=O)(OCC)OCC
inactive: dose: 12.5 mg/kg/injection, schedule: Q01DX009 (ip), vehicle: saline 96 % of control and 108 % of control | dose: 12.5 mg/kg/injection, schedule: Q04DX003 (ip), vehicle: saline 100 % of control | dose: 25.0 mg/kg/injection, schedule: Q01DX009 (ip), vehicle: saline 100 % of control and 91 % of control | [11] 107 % of control | dose: 50.0 mg/kg/injection, schedule: Q01DX009 (ip), vehicle: saline 97 % of control and 100 % of control | [12] 110 % of control | [8] 103 % of control and 91 % of control | [9] 103 % of control | [10] 100 % of control

COCCNP(=O)(OC)OC
inactive: dose: 50.0 mg/kg/injection, schedule: Q01DX009 (ip), vehicle: acetone 100 % of control | dose: 50.0 mg/kg/injection, schedule: Q04DX003 (ip), vehicle: acetone 96 % of control | dose: 100.0 mg/kg/injection, schedule: Q01DX001 (ip), vehicle: acetone 110 % of control | dose: 100.0 mg/kg/injection, schedule: Q01DX009 (ip), vehicle: acetone 108 % of control | [1] 101 % of control | dose: 200.0 mg/kg/injection, schedule: Q01DX001 (ip), vehicle: acetone 102 % of control | dose: 200.0 mg/kg/injection, schedule: Q01DX009 (ip), vehicle: acetone 97 % of control | [2] 111 % of control

CN(C)[C@@H]1C(=O)C(C(N)=O)=C(O)[C@@]2(O)C(=O)C3=C(O)c4c(O)cccc4C[C@H]3C[C@@H]12
inactive: dose: 12.5 mg/kg/injection, schedule: Q01DX001 (ip), vehicle: other 94 % of control | dose: 12.5 mg/kg/injection, schedule: Q04DX003 (ip), vehicle: Klucel (hydroxypropylcellulose) (HPC) 98 % of control | dose: 18.75 mg/kg/injection, schedule: Q01DX009 (ip), vehicle: other 111 % of control | dose: 25.0 mg/kg/injection, schedule: Q01DX001 (ip), vehicle: other 96 % of control | dose: 25.0 mg/kg/injection, schedule: Q04DX003 (ip), vehicle: Klucel (hydroxypropylcellulose) (HPC) 104 % of control | dose: 37.5 mg/kg/injection, schedule: Q01DX009 (ip), vehicle: other 117 % of control | dose: 50.0 mg/kg/injection, schedule: Q01DX001 (ip), vehicle: other 100 % of control | dose: 50.0 mg/kg/injection, schedule: Q04DX003 (ip), vehicle: Klucel (hydroxypropylcellulose) (HPC) 107 % of control | dose: 75.0 mg/kg/injection, schedule: Q04DX003 (ip), vehicle: other 107 % of control | [13] 112 % of control

COc1cccc(-n2cc(C#N)c3c(C)cc(C)nc32)c1
inactive: [13] 87 % of control | dose: 200.0 mg/kg/injection, schedule: Q01DX001 (ip), vehicle: saline 91 % of control | dose: 400.0 mg/kg/injection, schedule: Q01DX001 (ip), vehicle: saline 87 % of control

O=C(COc1ccc(Cl)c(Cl)c1)Nc1ccc[n+](Cc2ccccc2S(=O)(=O)F)c1
inactive: [7] 96 % of control

CCCCN(C)N=Nc1ccc(S(N)(=O)=O)cc1
inactive: dose: 30.0 mg/kg/injection, schedule: Q01DX Z (ip), vehicle: carboxymethylcellulose (CMC) 92 % of control | dose: 60.0 mg/kg/injection, schedule: Q01DX Z (ip), vehicle: carboxymethylcellulose (CMC) 92 % of control | dose: 90.0 mg/kg/injection, schedule: Q01DX Z (ip), vehicle: carboxymethylcellulose (CMC) 105 % of control

NC(N)=N/N=C/c1c(O)ccc2ccccc12
inactive: dose: 15.0 mg/kg/injection, schedule: Q01DX Z (ip), vehicle: saline 99 % of control | dose: 15.6 mg/kg/injection, schedule: Q01DX010 (oral), vehicle: saline 117 % of control | dose: 31.0 mg/kg/injection, schedule: Q01DX Z (ip), vehicle: saline 94 % of control | dose: 31.3 mg/kg/injection, schedule: Q01DX010 (oral), vehicle: saline 118 % of control | dose: 63.0 mg/kg/injection, schedule: Q01DX Z (ip), vehicle: saline 86 % of control

O=[N+]([O-])c1cc(S(=O)(=O)F)ccc1S
inactive: dose: 100.0 mg/kg/injection, schedule: Q04DX003 (ip), vehicle: Klucel (hydroxypropylcellulose) (HPC) 102 % of control | dose: 200.0 mg/kg/injection, schedule: Q04DX003 (ip), vehicle: Klucel (hydroxypropylcellulose) (HPC) 100 % of control

CN1CCC(=C(C#N)c2ccccc2)CC1
inactive: [11] 97 % of control | [12] 97 % of control
